Laboratory results published in PMC5341770 (Nature microbiology, 2017).

Target: T1, WarA (PA4379) (Pseudomonas aeruginosa, UniProt Q9HW23)
T1 sequence (Q9HW23 1-227): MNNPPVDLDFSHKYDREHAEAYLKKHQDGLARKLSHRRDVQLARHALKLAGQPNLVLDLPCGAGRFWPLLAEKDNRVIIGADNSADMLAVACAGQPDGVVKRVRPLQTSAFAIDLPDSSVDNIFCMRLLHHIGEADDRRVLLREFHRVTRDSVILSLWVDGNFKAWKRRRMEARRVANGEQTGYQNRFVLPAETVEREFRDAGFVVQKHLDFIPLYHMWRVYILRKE
Details: methyl acceptor: LPS from a warA deletion mutant

With C[S+](CC[C@H](N)C(=O)O)C[C@H]1O[C@@H](n2cnc3c(N)ncnc32)[C@H](O)[C@@H]1O (stereo partly drawn) [S-adenosyl-L-methionine] the “fluorescent methyltransferase activity kit” value was “using S-adenosyl-L-methionine as the methyl group donor and measuring activity in relative fluorescent units”.
